According to patent US20110034419A1, “Cardioprotective Drugs and Diagnostics for Assessing Risk of Cardiovascular Disease” (priority 2009, published 2011):

Columns and labels:
dermal fibroblasts = conditions: literature (Bu et al., 2006); cited from earlier work
[1] = tested on: endothelial cell monolayers (HUVECs); assay: Electrical Cell Substrate Impedance Sensing (ECIS) assay of transendothelial electrical resistance (TEER); format: cell-based, human; conditions: for Inhibition of the TEER response to HDL / Inhibition of the TEER response to S1P: PTX 1 μg/ml, antagonists 10 μM; for Inhibition of the TEER response to HDL: HDL 1000 or 621 μg/ml; for Inhibition of the TEER response to S1P: S1P 833 nM or 250 nM
Procedure: Confluent endothelial monolayers were grown under serum-free conditions until a minimal TEER plateau had been reached. The cells were then incubated with S1P or HDL in the presence or absence of PTX (A and B) or S1P1 antagonists (C and D). In A and B, S1P was used at 833 nM, HDL at 1000 μg/ml (containing 400 nM S1P) and PTX at 1 μg/ml. In C and D, S1P was used at 250 nM, HDL at 621 μg/ml (containing 250 nM S1P), the S1P1 antagonist 857390 at 10 μM and the S1P1/S1P3 antagonist VPC23019 at 10 μM. As controls, monolayers were treated with BSA-containing serum free medium (SFM) plus or minus vehicle buffer. Each of the TEER tracings shown is an average of two replicate wells and representative of three independent experiments. Impedance values were normalized by dividing each value by the level of impedance measured just prior to the addition of effectors. […]
ECIS: Electrical cell substrate impedance sensing (ECIS) assays will be conducted essentially as described in (1). Briefly, 8W10E+ electrode arrays will be pre-coated with human fibronectin (Invitrogen, Carlsbad, Calif.) at 100 μg/ml in 0.15M NaCl, 0.01M Tris, pH 8.0. HUVECs in EGM-2 medium will be seeded into the wells at a density of 1×10^5 cells per well. Electrical resistance (impedance) will be measured every […] at a frequency of 15 kHz. For every 48 h of culture, 50% volume of medium will be replaced with fresh EGM-2. When the electrical resistance reaches a maximal plateau (−3 days) the medium will be replaced with serum-free endothelial basal medium (EBM; Lonza) containing 1× penicillin-streptomycin-glutamine (Invitrogen). Electrical resistance will be monitored until a minimal plateau is reached (˜24 h). Either HDL from CCHS subjects (depleted of albumin and apoB lipoproteins) or synthetic HDLs will be introduced into the culture medium by removing a volume corresponding to that of the HDL to be added. The maximum volume of each HDL added will not exceed 1/25 of the 400 μl volume of conditioned culture medium in each well. For experiments evaluating the effects of pertussis toxin (PTX), PTX (100 ng/ml) or the PTX buffer (50% glycerol with 50 mM Tris, 10 mM glycine, and 0.5M NaCl, pH 7.5) will be added to EBM during the final 12 h of serum starvation. S1P or HDL will then be added to the medium. Electrical resistance will be monitored through 5 h post addition of agents.

[2] = tested on: Erk1/2 activation in HUVECs; assay: Multiplex bead array assay of Erk1/2 phosphorylation; format: cell-based, human; conditions: for Inhibition of HDL-induced activation of Erk1/2 / Inhibition of S1P-induced activation of Erk1/2: PTX 100 ng/ml 12 h, 3 min; for Inhibition of HDL-induced activation of Erk1/2: antagonists added 15 min before HDL (containing 200 nM S1P); for Inhibition of S1P-induced activation of Erk1/2: antagonists added 15 min before S1P (200 nM)
Procedure: (§1) The effect of S1P and HDL on activation of Erk1/2 (A-D) and Akt (E-H) in HUVECs was determined by multiplex bead array assay. In A-D, the values for the fold difference in Erk1/2 phosphorylation were derived from the level of phosphoErk1/2 fluorescence in S1P or HDL treated cells divided by the level of phosphoErk1/2 fluorescence in control cells. In E-G, the values for the fold increase in Akt phosphorylation were derived from the level of phosphoAkt fluorescence in cells treated with S1P or HDL divided by the level of phosphoAkt fluorescence measured in control cells. The data depicted in panels A, C, E and G is based on treating HUVECs for the indicated times with 833 nM S1P or 333 μg/ml HDL (containing 133 nM S1P). The data depicted in panels B, D, F and H is based on treating HUVECs with indicated concentrations of S1P or HDL for 3 min. The level of S1P in the 3-fold dilutions of HDL tested in panel H ranged from 12-337 nM. Data are shown from a representative experiment.
(§2) In A and B, pertussis toxin (PTX, 100 ng/ml) or the PTX buffer was added to endothelial cell basal medium (EBM) during the final 12 h of serum starvation. BSA, S1P (200 nM) or HDL (containing 200 nM S1P) were then added to the medium and allowed to incubate with the cells for 3 min. In C and D, the S1P1 antagonist 857390 or the S1P1/S1P3 antagonist or vehicle were added to the medium 15 min prior to addition of S1P or HDL and allowed to incubate with the cells for 3 min. The graphed values were derived from the level of phosphoErk1/2 or phosphoAkt fluorescence in S1P- or HDL-treated cells divided by the level of phosphoErk1/2 or phosphoAkt fluorescence in BSA treated cells. Data are shown from representative experiments, antagonists and inhibitor experiments were performed 2-4 times (e.g. PTX, n=3; S1P1 antagonist, n=4; S1P1/S1P3 antagonist, n=2). Each data point is an average from two independent wells.
(§3) Approach: A bead-based multiplex assay will be used to determine changes in phosphorylated Erk1/2, phosphorylated Akt, and total Erk and total Akt in endothelial cells in response to treatments with HDLs from dislipidemic subjects and synthetic HDLs containing defined amounts of S1P. These assays will be conducted essentially as described by (1). Briefly, HUVECs will be seeded into 24 well dishes (Corning) at 2×10^5 cells per well and grown for 18 h in endothelial growth medium-2 (EGM-2, Lonza). The medium will then be replaced with endothelial basal medium (EBM) containing 0.1% FBS and the cells grown for 24 h. The medium will then be supplemented with HDL samples (i.e., CCHS subject serum-derived HDL freed of albumin- and apoB-containing lipoproteins) or synthetic HDLs (containing defined amounts of S1P). As described above, this will be done by removing a volume of the conditioned culture medium corresponding to that of the HDL to be added. The cells will be extracted with Bio-Plex cell lysis buffer (Bio-Rad, Hercules, Calif.) and protein concentration determined by Bio-Rad DC Protein Assay (Bio-Rad). Levels of phospho-Erk1/2, total-Erk1/2 and phospho-Akt in the extracts will be determined by multiplex bead assay using kits (Bio-Rad) and a Bioplex-200 instrument (Bio-Rad).

Akt activation in HUVECs = assay: Multiplex bead array assay of Akt phosphorylation; format: cell-based, human; conditions: PTX 100 ng/ml 12 h, 3 min; for Inhibition of HDL-induced activation of Akt: antagonists added 15 min before HDL (containing 200 nM S1P); for Inhibition of S1P-induced activation of Akt: antagonists added 15 min before S1P (200 nM)
Procedure: as §1, §2
as §3, with “The medium will then be replaced with endothelial basal medium (EBM) containing 0.1% FBS and the cells grown for 24 h. The medium will then be supplemented with HDL samples (i.e., CCHS subject serum-derived HDL freed of albumin- and apoB-containing lipoproteins) or synthetic HDLs (containing defined amounts of S1P). As described above, this will be done by removing a volume of the conditioned culture medium corresponding to that of the HDL to be added.” left out

[3] = tested on: endothelial cell monolayers (HUVECs); conditions: literature (Schaphorst et al.; Xu et al.); cited from earlier work
lung capillary leakage = conditions: mice, lipopolysaccharide treatment; literature (Peng et al.); cited from earlier work

CCCCCCCCCCCCCCC[C@@H](O)[C@@H](N)COP(=O)(O)O [DH-S1P, dihydro-S1P]
Activation of ERK1/2 in dermal fibroblasts (dermal fibroblasts): mediate activation ERK1/2 | Induction of MMP1 expression in dermal fibroblasts (dermal fibroblasts): induction of matrix metalloproteinase 1 (MMP1) expression

pertussis toxin [PTX]
Inhibition of the TEER response to HDL [1]: completely abrogated | Inhibition of the TEER response to S1P [1]: inhibited | Inhibition of HDL-induced activation of Erk1/2 [2]: inhibited | Inhibition of S1P-induced activation of Erk1/2 [2]: inhibited | Inhibition of HDL-induced activation of Akt (Akt activation in HUVECs): inhibited | Inhibition of S1P-induced activation of Akt (Akt activation in HUVECs): inhibited

CCCCCCCCCCCCC/C=C/[C@@H](O)[C@@H](N)COP(=O)(O)O [S1P, sphingosine 1-phosphate]
Effect on transendothelial electrical resistance (TEER) ([1]; confluent endothelial monolayers in serum free medium, substance added alone): dose-dependent increase in TEER | Effect on Erk1/2 phosphorylation ([2]; 833 nM S1P or 333 μg/ml HDL, time course): transient increase in Erk1/2 phosphorylation | Dose dependence of Erk1/2 activation response ([2]; 3 min treatment): dose dependent | Effect on endothelial barrier activity (TEER) in cultured endothelial cells [3]: increase endothelial barrier activity | Effect on lung capillary leakage (lung capillary leakage): greatly reduces lung capillary leakage | Activation of ERK1/2 in dermal fibroblasts (dermal fibroblasts): not reproduced | Induction of MMP1 expression in dermal fibroblasts (dermal fibroblasts): not reproduced

CCCCCCCCc1cccc(NC(=O)[C@H](N)COP(=O)(O)O)c1 [VPC23019]
Inhibition of the TEER response to HDL [1]: inhibited | Inhibition of the TEER response to S1P [1]: inhibited | Inhibition of HDL-induced activation of Erk1/2 [2]: inhibited | Inhibition of S1P-induced activation of Erk1/2 [2]: inhibited | Inhibition of HDL-induced activation of Akt (Akt activation in HUVECs): inhibited | Inhibition of S1P-induced activation of Akt (Akt activation in HUVECs): inhibited
